Test [1] concerns HAP1 MTAP-intact cell line. As to the kind of experiment: SDMA in-cell western assay, HAP1 MTAP-intact. To be noted: Homo sapiens, HAP1, SDMA in-cell western, HAP1 MTAP-intact; read-out: MTAP HAP1 intact IC50. The test is classed as cell-based. A digest of the protocol:
(§1)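 Readout: in-cell western detection of SDMA. Cells: HAP1 expressing endogenous MTAP and an MTAP-null HAP1 counterpart. Output: IC50.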

Test [2] has as its target T1, PRMT5 (Homo sapiens, UniProt O14744).
T1 construct: purchased Viva (custom protein)
As to the kind of experiment: PRMT5 biochemical IC50 assay with MTA as cofactor. To be noted: PRMT5, MTA as cofactor; read-out: MTA IC50.

Test [3] has as its target T1, PRMT5. As to the kind of experiment: PRMT5 biochemical IC50 assay with no cofactor. The following applies: PRMT5, no cofactor; read-out: No Cofactor/rel IC50. From the text:
Table 1 indicates IC50 values (μM) against PRMT5 for exemplary compounds in the presence of SAM as cofactor, with no cofactor, and with MTA as cofactor, respectively (columns 4-6). […] Ki values can be calculated from the IC50 values as described in the Examples section. As detailed in the Examples section, for the assay performed in the presence of SAM, IC50=Ki×1.5 (Ki=IC50/1.5).

For test [4], the system named is HAP1 MTAP-deleted cell line. As to the kind of experiment: SDMA in-cell western assay, HAP1 MTAP-deleted. The following applies: for IC50: Homo sapiens, HAP1, SDMA in-cell western, HAP1 MTAP-deleted, read-out: HAP 1 MTAP deleted IC50; for MTAP intact/deleted ratio: IC50 ratio HAP1 MTAP-intact / HAP1 MTAP-deleted, SDMA in-cell western. The test is classed as cell-based. Summed up:
as §1

For test [5], the system named is HAP1 MTAP-deleted cell line. As to the kind of experiment: Viability assay, MTAP-deleted cell line. To be noted: Homo sapiens, HAP1, viability IC50, MTAP-deleted cell line; read-out: HAP1 MTAP deleted viability. The test is classed as cell-based. The source says: Table 1 additionally indicates IC50 values in a viability assay for the MTAP-deleted cell line (column 10), indicating the effect of treatment with compound on cell survival.

The target of test [6] is T1, PRMT5. As to the kind of experiment: PRMT5 biochemical IC50 assay with SAM as cofactor. The following applies: PRMT5, SAM as cofactor; read-out: SAM IC50.

T1 sequence (O14744 whole entry): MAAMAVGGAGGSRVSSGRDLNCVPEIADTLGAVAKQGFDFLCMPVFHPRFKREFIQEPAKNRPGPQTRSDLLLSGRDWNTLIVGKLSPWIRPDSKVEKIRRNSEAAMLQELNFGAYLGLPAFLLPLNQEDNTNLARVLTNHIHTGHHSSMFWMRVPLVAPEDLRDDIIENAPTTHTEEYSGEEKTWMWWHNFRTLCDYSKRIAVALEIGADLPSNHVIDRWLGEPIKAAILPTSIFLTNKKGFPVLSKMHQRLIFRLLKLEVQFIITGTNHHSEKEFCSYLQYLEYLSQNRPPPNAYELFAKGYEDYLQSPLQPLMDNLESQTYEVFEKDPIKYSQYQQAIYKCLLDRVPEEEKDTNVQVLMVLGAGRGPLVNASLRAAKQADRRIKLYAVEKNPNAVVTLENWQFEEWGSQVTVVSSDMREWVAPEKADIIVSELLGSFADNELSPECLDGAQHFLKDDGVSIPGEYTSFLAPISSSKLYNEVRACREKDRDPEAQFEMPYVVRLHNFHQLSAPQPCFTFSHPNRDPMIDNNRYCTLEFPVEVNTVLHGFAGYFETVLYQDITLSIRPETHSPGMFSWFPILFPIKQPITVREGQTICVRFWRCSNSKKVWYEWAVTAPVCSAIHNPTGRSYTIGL
T1 sequence (Q9BQA1 whole entry partner): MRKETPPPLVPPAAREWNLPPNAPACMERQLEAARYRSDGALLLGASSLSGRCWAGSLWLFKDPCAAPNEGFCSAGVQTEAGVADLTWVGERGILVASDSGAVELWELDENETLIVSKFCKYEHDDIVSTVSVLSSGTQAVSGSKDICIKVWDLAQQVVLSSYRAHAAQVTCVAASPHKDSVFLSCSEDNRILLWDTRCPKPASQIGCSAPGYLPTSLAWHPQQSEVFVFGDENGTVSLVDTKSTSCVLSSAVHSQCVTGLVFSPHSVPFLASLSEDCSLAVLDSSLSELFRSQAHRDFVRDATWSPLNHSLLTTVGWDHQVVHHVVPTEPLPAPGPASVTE

With `C[C@@H]1CC[C@H](c2cc(F)cc(Cl)c2)N(C(=O)C(=O)Nc2cncc(C(N)=O)c2)C1` (single isomer, unassigned) [Compound 625], the IC50 in test [1] is above 1000 nM; at PRMT5 [2], 50 to 500 nM; at PRMT5 [3], above 500 nM; in test [4] it was 100 to 1000 nM; in test [5], above 10000 nM; on PRMT5 [6], 50 to 500 nM. Besides, the MTAP intact/deleted ratio result in test [4] was “A (an IC50 ratio greater than or equal to 10 fold)”.

For the compound `C[C@H]1CC[C@H](c2ccc(-c3cc[nH]n3)cc2)N(C(=O)C(=O)Nc2cncc(C(N)=O)c2)C1` (single isomer, unassigned) [Compound 626], the IC50 was above 1000 nM in test [1]; 50 to 500 nM at PRMT5 [2]; 50 to 500 nM on PRMT5 [3]; below 100 nM in test [4]; 1000 to 10000 nM in test [5]; 50 to 500 nM on PRMT5 [6]. The MTAP intact/deleted ratio result in test [4] is “A (an IC50 ratio greater than or equal to 10 fold)”.

`C[C@@H]1CC[C@@H](c2ccc(-c3cc[nH]n3)cc2)N(C(=O)C(=O)Nc2cncc(C(N)=O)c2)C1` (single isomer, unassigned) [Compound 627]: the IC50 in test [1] was above 1000 nM; on PRMT5 [2], above 500 nM; at PRMT5 [3], above 500 nM; in test [4] it was 100 to 1000 nM; in test [5] it was above 10000 nM; at PRMT5 [6] it was above 500 nM. For the same compound, in test [4], the MTAP intact/deleted ratio entry was “A (an IC50 ratio greater than or equal to 10 fold)”.

As for `Cc1cc(NC(=O)C(=O)N2C[C@H](C)CC[C@H]2c2ccc(-c3cn[nH]c3)cc2)cnc1N` (single isomer, unassigned) [Compound 628], the IC50 was 100 to 1000 nM in test [1]; 50 to 500 nM on PRMT5 [2]; below 50 nM at PRMT5 [3]; below 100 nM in test [4]; below 1000 nM in test [5]; 50 to 500 nM on PRMT5 [6]. For the same compound, the MTAP intact/deleted ratio result in test [4] is reported as “A (an IC50 ratio greater than or equal to 10 fold)”.

`Cc1cc(NC(=O)C(=O)N2C[C@@H](C)CC[C@@H]2c2ccc(-c3cn[nH]c3)cc2)cnc1N` (single isomer, unassigned) [Compound 629]: the IC50 is above 1000 nM in test [1]; above 500 nM at PRMT5 [2]; above 500 nM on PRMT5 [3]; above 1000 nM in test [4]; above 10000 nM in test [5]; above 500 nM at PRMT5 [6]. For the same compound, in test [4], the MTAP intact/deleted ratio result was “B (an IC50 ratio greater than or equal to 3 fold but lower than 10 fold)”.

With `Cc1cc(NC(=O)C(=O)N2C[C@H](C)CC[C@H]2c2ccc(NS(C)(=O)=O)cc2)cnc1C` (single isomer, unassigned) [Compound 630], the IC50 in test [1] was above 1000 nM; on PRMT5 [2] it was above 500 nM; at PRMT5 [3], above 500 nM; in test [4], 100 to 1000 nM; in test [5], above 10000 nM; on PRMT5 [6], above 500 nM. In test [4], the MTAP intact/deleted ratio result was “A (an IC50 ratio greater than or equal to 10 fold)”.

As to `Cc1cc(NC(=O)C(=O)N2C[C@H](C)CC[C@H]2c2ccc3[nH]ncc3c2)cnc1C` (single isomer, unassigned) [Compound 631], the IC50 in test [1] is above 1000 nM; at PRMT5 [2] it was above 500 nM; on PRMT5 [3], above 500 nM; in test [4], above 1000 nM; in test [5] it was above 10000 nM; on PRMT5 [6], above 500 nM. In addition, in test [4], the MTAP intact/deleted ratio result was “C (an IC50 ratio of less than 3 fold)”.

Turning to `Cc1cc(NC(=O)C(=O)N2C[C@@H](C)CC[C@@H]2c2ccc3sccc3c2)cnc1N` (single isomer, unassigned) [Compound 634], the IC50 in test [1] is 100 to 1000 nM; at PRMT5 [2], below 50 nM; at PRMT5 [3] it was below 50 nM; in test [4], below 100 nM; in test [5], below 1000 nM; at PRMT5 [6], below 50 nM. For the same compound, in test [4], the MTAP intact/deleted ratio entry is listed as “A (an IC50 ratio greater than or equal to 10 fold)”.

For `C[C@H]1CC[C@H](c2ccc3[nH]ncc3c2F)N(C(=O)C(=O)Nc2cncc(C(N)=O)c2)C1` (single isomer, unassigned) [Compound 637], the IC50 is above 1000 nM in test [1]; above 500 nM at PRMT5 [2]; above 500 nM at PRMT5 [3]; 100 to 1000 nM in test [4]; above 10000 nM in test [5]; above 500 nM at PRMT5 [6]. For the same compound, the MTAP intact/deleted ratio result in test [4] is on record as “A (an IC50 ratio greater than or equal to 10 fold)”.

For `C[C@H]1CC[C@H](c2cc(Cl)cc(C(F)(F)F)c2)N(C(=O)C(=O)Nc2cncc(C(N)=O)c2)C1` (single isomer, unassigned) [Compound 646], the IC50 in test [1] was above 1000 nM; at PRMT5 [2], below 50 nM; at PRMT5 [3], 50 to 500 nM; in test [4] it was 100 to 1000 nM; in test [5], 1000 to 10000 nM; at PRMT5 [6] it was below 50 nM. Also, the MTAP intact/deleted ratio entry in test [4] is given as “A (an IC50 ratio greater than or equal to 10 fold)”.

`Cc1ccc([C@@H]2CC[C@@H](C)CN2C(=O)C(=O)Nc2cncc(C(N)=O)c2)cn1` (single isomer, unassigned) [Compound 654]: the IC50 is above 1000 nM in test [1]; below 50 nM on PRMT5 [2]; 50 to 500 nM on PRMT5 [3]; 100 to 1000 nM in test [4]; 1000 to 10000 nM in test [5]; 50 to 500 nM at PRMT5 [6]. The MTAP intact/deleted ratio result in test [4] is given as “A (an IC50 ratio greater than or equal to 10 fold)”.

In the case of `C[C@H]1CC[C@H](c2ccc(C(F)(F)F)c(Cl)c2)N(C(=O)C(=O)Nc2cncc(C(N)=O)c2)C1` (single isomer, unassigned) [Compound 655], the IC50 is above 1000 nM in test [1]; below 50 nM at PRMT5 [2]; 50 to 500 nM at PRMT5 [3]; 100 to 1000 nM in test [4]; 1000 to 10000 nM in test [5]; below 50 nM at PRMT5 [6]. In addition, the MTAP intact/deleted ratio entry in test [4] is “A (an IC50 ratio greater than or equal to 10 fold)”.

Consider `Cc1cc(NC(=O)C(=O)N2C[C@@H](C)CC[C@@H]2c2ccc3c(c2)C(=O)NC3)cnc1N` (single isomer, unassigned) [Compound 657], for which the IC50 in test [1] is 100 to 1000 nM; at PRMT5 [2], below 50 nM; at PRMT5 [3] it was below 50 nM; in test [4] it was below 100 nM; in test [5], below 1000 nM; at PRMT5 [6] it was 50 to 500 nM. For the same compound, the MTAP intact/deleted ratio result in test [4] is given as “A (an IC50 ratio greater than or equal to 10 fold)”.

As to `Cc1cc(NC(=O)C(=O)N2C[C@H](C)CC[C@H]2c2cc(F)cc(Cl)c2)cnc1N` (single isomer, unassigned) [Compound 659], the IC50 was 100 to 1000 nM in test [1]; below 50 nM on PRMT5 [2]; below 50 nM at PRMT5 [3]; below 100 nM in test [4]; below 1000 nM in test [5]; 50 to 500 nM on PRMT5 [6]. Besides, the MTAP intact/deleted ratio entry in test [4] is recorded as “A (an IC50 ratio greater than or equal to 10 fold)”.

Take `Cc1cc(NC(=O)C(=O)N2C[C@@H](C)CC[C@@H]2c2cc(Cl)cc(Cl)c2)cnc1N` (single isomer, unassigned) [Compound 660]: the IC50 in test [1] is above 1000 nM; at PRMT5 [2] it was 50 to 500 nM; at PRMT5 [3], above 500 nM; in test [4], above 1000 nM; in test [5] it was above 10000 nM; on PRMT5 [6] it was above 500 nM. For the same compound, in test [4], the MTAP intact/deleted ratio entry was “B (an IC50 ratio greater than or equal to 3 fold but lower than 10 fold)”.

Consider `C[C@@H]1CC[C@@H](c2cc(F)c3[nH]ncc3c2)N(C(=O)C(=O)Nc2cncc(C(N)=O)c2)C1` (single isomer, unassigned) [Compound 663], for which the IC50 was above 1000 nM in test [1]; below 50 nM on PRMT5 [2]; below 50 nM on PRMT5 [3]; below 100 nM in test [4]; 1000 to 10000 nM in test [5]; 50 to 500 nM on PRMT5 [6]. In test [4], the MTAP intact/deleted ratio result is listed as “A (an IC50 ratio greater than or equal to 10 fold)”.

In the case of `Cc1cc(NC(=O)C(=O)N2C[C@@H](C)CC[C@@H]2c2cc(Cl)cc(C(F)(F)F)c2)cnc1N` (single isomer, unassigned) [Compound 665], the IC50 is above 1000 nM in test [1]; below 50 nM on PRMT5 [2]; 50 to 500 nM on PRMT5 [3]; 100 to 1000 nM in test [4]; 1000 to 10000 nM in test [5]; 50 to 500 nM on PRMT5 [6]. Moreover, the MTAP intact/deleted ratio result in test [4] is given as “A (an IC50 ratio greater than or equal to 10 fold)”.

For `COc1ncc(NC(=O)C(=O)N2C[C@H](C)CC[C@H]2c2ccc3c(c2)CCC(=O)N3)cc1C(N)=O` (single isomer, unassigned) [Compound 674], the IC50 in test [1] is 100 to 1000 nM; on PRMT5 [2], below 50 nM; at PRMT5 [3], below 50 nM; in test [4] it was below 100 nM; in test [5], below 1000 nM; on PRMT5 [6], 50 to 500 nM. In test [4], the MTAP intact/deleted ratio result is “A (an IC50 ratio greater than or equal to 10 fold)”.

The record behind these values is US11999727B2 (Tango Therapeutics, Inc., priority 2020, dated 2024).
